Assay results taken from PubChem BioAssay (NCI).
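All cell lines were grown in 96-well plates and treated with compound for 48 hours. TGI: total growth inhibition.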

How the values were obtained:
Assay in all cases: NCI anticancer screen, dose series, 48 h
OVCAR-8 ovarian = test system: OVCAR-8 ovarian
HOP-62 NSCLC = test system: HOP-62 NSCLC
SN12C renal = test system: SN12C renal
HS 578T breast = test system: HS 578T breast
CCRF-CEM leukemia = test system: CCRF-CEM leukemia
SF-539 CNS = test system: SF-539 CNS
RPMI-8226 leukemia = test system: RPMI-8226 leukemia
A549 NSCLC = test system: A549 NSCLC
SK-MEL-5 melanoma = test system: SK-MEL-5 melanoma
TK-10 renal = test system: TK-10 renal
SW-620 colon = test system: SW-620 colon
HCC-2998 colon = test system: HCC-2998 colon
U251 CNS = test system: U251 CNS
OVCAR-5 ovarian = test system: OVCAR-5 ovarian
K-562 leukemia = test system: K-562 leukemia
PC-3 prostate = test system: PC-3 prostate
NCI-H522 lung = test system: NCI-H522 lung
UACC-257 melanoma = test system: UACC-257 melanoma
HL-60(TB) leukemia = test system: HL-60(TB) leukemia
SR leukemia = test system: SR leukemia
MALME-3M melanoma = test system: MALME-3M melanoma
NCI-H460 lung = test system: NCI-H460 lung
HCT-116 colon = test system: HCT-116 colon
SF-295 CNS = test system: SF-295 CNS
SK-MEL-2 melanoma = test system: SK-MEL-2 melanoma
SF-268 CNS = test system: SF-268 CNS
NCI-H23 lung = test system: NCI-H23 lung
786-0 renal = test system: 786-0 renal
KM12 colon = test system: KM12 colon
NCI-H226 lung = test system: NCI-H226 lung
MOLT-4 leukemia = test system: MOLT-4 leukemia
SNB-75 CNS = test system: SNB-75 CNS
OVCAR-3 ovarian = test system: OVCAR-3 ovarian
SK-MEL-28 melanoma = test system: SK-MEL-28 melanoma
MCF7 breast = test system: MCF7 breast
HCT-15 colon = test system: HCT-15 colon
HT29 colon = test system: HT29 colon

Measured: TGI

Cc1ncc([N+](=O)[O-])n1CCNCCCn1ccnc1[N+](=O)[O-]
> 100 µM: all assays above
